Assay results reported in the supplement of paper PMC11451515.

Tests used:
Conditions in all cases: 48 h
[1] = tested on: P12-Ichikawa; assay: AUC of viability dose-response curve (% viability x log10 dose units); higher = less sensitive
Method in brief: (§1)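 Over 48 h at 37°C, leukemia cells in 1536-well plates (500 or 1000 cells/well), adapted to each medium, received library compounds in DMSO at 11 threefold doses from 47 μM to 0.79 nM. CellTiter-Glo One luminescence, normalised per plate to DMSO and cell-free wells, was fitted by a four-parameter log-logistic function of log10 dose. The area under the curve was then integrated by trapezoidal rule, after scaling curves above full viability and removing those that failed quality control.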

[2] = tested on: NOMO1; assay: as above
Method in brief: as §1

[3] = tested on: SEM cells; assay: as above
Method in brief: as §1

[4] = tested on: P12-Ichikawa; assay: cell viability relative to DMSO control; higher = less cytotoxic
Method in brief: (§2)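 Viability was expressed as a per-plate percentage of DMSO wells, with cell-free wells as background. Leukemia cells (NOMO1 or SEM at 500 cells/well, P12-Ichikawa at 1000 cells/well) were adapted for at least four passages in each medium and seeded in 1536-well plates (5 μl). Library compounds in DMSO were pin-dosed over an 11-point threefold series from 47 μM to 0.79 nM, and CellTiter-Glo One luminescence was read after 48 h at 37°C.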

[5] = tested on: NOMO1; assay: as above
Method in brief: as §2

[6] = tested on: SEM cells; assay: as above
Method in brief: as §2

CCCCNc1cc(C(=O)O)cc([S+](N)(=O)[O-])c1Oc1ccccc1
AUC of viability dose-response curve
Conditions | [1] | [2] | [3]
HPLM + 10% dialyzed FBS | 458 | 477 | 419
RPMI 5 mM glucose + 10% FBS | 465 | 427 | 433
RPMI 5 mM glucose + 10% dialyzed FBS | 465 | 461 | 440

cell viability [%]
Conditions | [4] | [5] | [6]
HPLM + 10% dialyzed FBS, 0.000781 µM | 117 | – | 80.3
HPLM + 10% dialyzed FBS, 0.00234 µM | 116 | – | 97.7
HPLM + 10% dialyzed FBS, 0.00702 µM | 118 | – | 100
HPLM + 10% dialyzed FBS, 0.0211 µM | 116 | – | 101
HPLM + 10% dialyzed FBS, 0.0632 µM | 124 | – | 103
HPLM + 10% dialyzed FBS, 0.19 µM | 120 | – | 95.8
HPLM + 10% dialyzed FBS, 0.569 µM | 121 | – | 99.9
HPLM + 10% dialyzed FBS, 1.71 µM | 118 | – | 107
HPLM + 10% dialyzed FBS, 5.12 µM | 117 | – | 115
HPLM + 10% dialyzed FBS, 15.4 µM | 128 | – | 116
HPLM + 10% dialyzed FBS, 46.1 µM | 127 | – | 118
RPMI 5 mM glucose + 10% FBS, 0.000781 µM | – | 118 | 111
RPMI 5 mM glucose + 10% FBS, 0.00234 µM | – | 113 | 110
RPMI 5 mM glucose + 10% FBS, 0.00702 µM | – | 128 | 117
RPMI 5 mM glucose + 10% FBS, 0.0211 µM | – | 127 | 114
RPMI 5 mM glucose + 10% FBS, 0.0632 µM | – | 129 | 111
RPMI 5 mM glucose + 10% FBS, 0.19 µM | – | 115 | 109
RPMI 5 mM glucose + 10% FBS, 0.569 µM | – | 124 | 107
RPMI 5 mM glucose + 10% FBS, 1.71 µM | – | 120 | 112
RPMI 5 mM glucose + 10% FBS, 5.12 µM | – | 136 | 116
RPMI 5 mM glucose + 10% FBS, 15.4 µM | – | 146 | 141
RPMI 5 mM glucose + 10% FBS, 46.1 µM | – | 135 | 111
RPMI 5 mM glucose + 10% dialyzed FBS, 0.000781 µM | 111 | – | 108
RPMI 5 mM glucose + 10% dialyzed FBS, 0.00234 µM | 119 | – | 110
RPMI 5 mM glucose + 10% dialyzed FBS, 0.00702 µM | 115 | – | 109
RPMI 5 mM glucose + 10% dialyzed FBS, 0.0211 µM | 115 | – | 113
RPMI 5 mM glucose + 10% dialyzed FBS, 0.0632 µM | 118 | – | 115
RPMI 5 mM glucose + 10% dialyzed FBS, 0.19 µM | 117 | – | 126
RPMI 5 mM glucose + 10% dialyzed FBS, 0.569 µM | 116 | – | 107
RPMI 5 mM glucose + 10% dialyzed FBS, 1.71 µM | 113 | – | 123
RPMI 5 mM glucose + 10% dialyzed FBS, 5.12 µM | 124 | – | 135
RPMI 5 mM glucose + 10% dialyzed FBS, 15.4 µM | 124 | – | 120
RPMI 5 mM glucose + 10% dialyzed FBS, 46.1 µM | 116 | – | 128

CC(=O)C\1=C(/C)C2=CN=C(NC3=CC=C(C=N3)N4CCNCC4)N=C2N(C5CCCC5)C1=O
AUC of viability dose-response curve
Conditions | [1] | [2] | [3]
HPLM + 10% dialyzed FBS | 420 | 424 | 357
RPMI 5 mM glucose + 10% FBS | 400 | 429 | 378
RPMI 5 mM glucose + 10% dialyzed FBS | 392 | 406 | 365

cell viability [%]
Conditions | [4] | [5] | [6]
HPLM + 10% dialyzed FBS, 0.000781 µM | 111 | – | 124
HPLM + 10% dialyzed FBS, 0.00234 µM | 121 | – | 125
HPLM + 10% dialyzed FBS, 0.00702 µM | 119 | – | 107
HPLM + 10% dialyzed FBS, 0.0211 µM | 114 | – | 125
HPLM + 10% dialyzed FBS, 0.0632 µM | 114 | – | 119
HPLM + 10% dialyzed FBS, 0.19 µM | 110 | – | 109
HPLM + 10% dialyzed FBS, 0.569 µM | 107 | – | 80.6
HPLM + 10% dialyzed FBS, 1.71 µM | 93.1 | – | 68.1
HPLM + 10% dialyzed FBS, 5.12 µM | 88.5 | – | 59.6
HPLM + 10% dialyzed FBS, 15.4 µM | 77 | – | 60.8
HPLM + 10% dialyzed FBS, 46.1 µM | 28.9 | – | 27.5
RPMI 5 mM glucose + 10% FBS, 0.000781 µM | 119 | 123 | 114
RPMI 5 mM glucose + 10% FBS, 0.00234 µM | 116 | 118 | 119
RPMI 5 mM glucose + 10% FBS, 0.00702 µM | 124 | 103 | 133
RPMI 5 mM glucose + 10% FBS, 0.0211 µM | 113 | 113 | 113
RPMI 5 mM glucose + 10% FBS, 0.0632 µM | 113 | 136 | 126
RPMI 5 mM glucose + 10% FBS, 0.19 µM | 119 | 110 | 126
RPMI 5 mM glucose + 10% FBS, 0.569 µM | 98.5 | 105 | 100
RPMI 5 mM glucose + 10% FBS, 1.71 µM | 78.6 | 96.7 | 80.5
RPMI 5 mM glucose + 10% FBS, 5.12 µM | 72.6 | 98 | 61.6
RPMI 5 mM glucose + 10% FBS, 15.4 µM | 66.6 | 87.1 | 59.9
RPMI 5 mM glucose + 10% FBS, 46.1 µM | 61 | 68.8 | 22.2
RPMI 5 mM glucose + 10% dialyzed FBS, 0.000781 µM | 122 | 113 | 125
RPMI 5 mM glucose + 10% dialyzed FBS, 0.00234 µM | 117 | 114 | 107
RPMI 5 mM glucose + 10% dialyzed FBS, 0.00702 µM | 127 | 111 | 130
RPMI 5 mM glucose + 10% dialyzed FBS, 0.0211 µM | 117 | 112 | 122
RPMI 5 mM glucose + 10% dialyzed FBS, 0.0632 µM | 118 | 107 | 127
RPMI 5 mM glucose + 10% dialyzed FBS, 0.19 µM | 114 | 112 | 99.2
RPMI 5 mM glucose + 10% dialyzed FBS, 0.569 µM | 104 | 96.3 | 86.8
RPMI 5 mM glucose + 10% dialyzed FBS, 1.71 µM | 83.4 | 79.1 | 74.4
RPMI 5 mM glucose + 10% dialyzed FBS, 5.12 µM | 76.9 | 80.9 | 68.5
RPMI 5 mM glucose + 10% dialyzed FBS, 15.4 µM | 73 | 68.6 | 63.6
RPMI 5 mM glucose + 10% dialyzed FBS, 46.1 µM | 45.6 | 60.1 | 29.2

CCNC(=O)c1cc2c(-c3cc(OCCN4CCCC4)c(Cl)cc3Cl)nc(N)nc2s1
AUC of viability dose-response curve
Conditions | [1] | [2] | [3]
HPLM + 10% dialyzed FBS | 415 | 381 | 379
RPMI 5 mM glucose + 10% FBS | 389 | 355 | 375
RPMI 5 mM glucose + 10% dialyzed FBS | 380 | 373 | 368

cell viability [%]
Conditions | [4] | [5] | [6]
HPLM + 10% dialyzed FBS, 0.000781 µM | 98.3 | 105 | 114
HPLM + 10% dialyzed FBS, 0.00234 µM | 103 | 121 | 112
HPLM + 10% dialyzed FBS, 0.00702 µM | 109 | 92.7 | 112
HPLM + 10% dialyzed FBS, 0.0211 µM | 108 | 107 | 101
HPLM + 10% dialyzed FBS, 0.0632 µM | 102 | 102 | 104
HPLM + 10% dialyzed FBS, 0.19 µM | 101 | 104 | 114
HPLM + 10% dialyzed FBS, 0.569 µM | 108 | 105 | 101
HPLM + 10% dialyzed FBS, 1.71 µM | 92.8 | 86.6 | 95.2
HPLM + 10% dialyzed FBS, 5.12 µM | 62.9 | 47.3 | 32.2
HPLM + 10% dialyzed FBS, 15.4 µM | 53.6 | 17.2 | 20.1
HPLM + 10% dialyzed FBS, 46.1 µM | 44.9 | 15.8 | 19.4
RPMI 5 mM glucose + 10% FBS, 0.000781 µM | 102 | 84.7 | 103
RPMI 5 mM glucose + 10% FBS, 0.00234 µM | 91.9 | 93.6 | 108
RPMI 5 mM glucose + 10% FBS, 0.00702 µM | 106 | 95.6 | 117
RPMI 5 mM glucose + 10% FBS, 0.0211 µM | 97 | 85.6 | 96.6
RPMI 5 mM glucose + 10% FBS, 0.0632 µM | 98.4 | 95.8 | 112
RPMI 5 mM glucose + 10% FBS, 0.19 µM | 95.8 | 109 | 112
RPMI 5 mM glucose + 10% FBS, 0.569 µM | 97.2 | 88.2 | 112
RPMI 5 mM glucose + 10% FBS, 1.71 µM | 77.6 | 88.9 | 86.9
RPMI 5 mM glucose + 10% FBS, 5.12 µM | 47.1 | 32.3 | 31.9
RPMI 5 mM glucose + 10% FBS, 15.4 µM | 34 | 13.2 | 21.8
RPMI 5 mM glucose + 10% FBS, 46.1 µM | 35.5 | 10.1 | 18.7
RPMI 5 mM glucose + 10% dialyzed FBS, 0.000781 µM | 102 | 107 | 96.2
RPMI 5 mM glucose + 10% dialyzed FBS, 0.00234 µM | 96.5 | 103 | 98.6
RPMI 5 mM glucose + 10% dialyzed FBS, 0.00702 µM | 101 | 115 | 92.2
RPMI 5 mM glucose + 10% dialyzed FBS, 0.0211 µM | 94.7 | 111 | 110
RPMI 5 mM glucose + 10% dialyzed FBS, 0.0632 µM | 96 | 82.8 | 98.7
RPMI 5 mM glucose + 10% dialyzed FBS, 0.19 µM | 97.6 | 107 | 112
RPMI 5 mM glucose + 10% dialyzed FBS, 0.569 µM | 90.5 | 93.2 | 98
RPMI 5 mM glucose + 10% dialyzed FBS, 1.71 µM | 73.4 | 76.8 | 68.3
RPMI 5 mM glucose + 10% dialyzed FBS, 5.12 µM | 42 | 51.2 | 30.3
RPMI 5 mM glucose + 10% dialyzed FBS, 15.4 µM | 36.5 | 18.3 | 19.4
RPMI 5 mM glucose + 10% dialyzed FBS, 46.1 µM | 31.5 | 12.5 | 19.1
